# Assay results from ChEMBL document CHEMBL1201861, “Genomics of Drug Sensitity in Cancer screening data, Wellcome Trust Sanger Institute”.
# How the values were obtained:
# Test in all cases: cells
# Assay type in all cases: functional, cell-based
# Conditions in all cases: Homo sapiens
# OCUB-M = system: OCUB-M;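 note: growth inhibition of the cancer cell line, read out through a cell viability assay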
# Description: SANGER: Inhibition of human OCUB-M cell growth in a cell viability assay.
# Ramos-2G6-4C10 = system: Ramos-2G6-4C10;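 note: growth inhibition of the cell line, measured by a cell viability read-out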
# Description: SANGER: Inhibition of human Ramos-2G6-4C10 cell growth in a cell viability assay.
# NMC-G1 = system: NMC-G1;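 note: growth inhibition of the NMC-G1 cell line, measured with a cell viability read-out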
# Description: SANGER: Inhibition of human NMC-G1 cell growth in a cell viability assay.
# NCI-H446 = system: NCI-H446;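 note: growth inhibition of NCI-H446 cells determined by a cell viability assay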
# Description: SANGER: Inhibition of human NCI-H446 cell growth in a cell viability assay.
# BE-13 = system: BE-13;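 note: growth inhibition of human BE-13 cells, measured with a cell viability assay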
# Description: SANGER: Inhibition of human BE-13 cell growth in a cell viability assay.
# MLMA = system: MLMA;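 note: growth inhibition of MLMA cells (human), determined through a cell viability readout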
# Description: SANGER: Inhibition of human MLMA cell growth in a cell viability assay.
# MZ7-mel = system: MZ7-mel;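 note: growth inhibition of human MZ7-mel cells, measured by a cell viability assay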
# Description: SANGER: Inhibition of human MZ7-mel cell growth in a cell viability assay.
# A101D = system: A101D;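 note: growth inhibition of the cell line, measured with a viability assay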
# Description: SANGER: Inhibition of human A101D cell growth in a cell viability assay.
# NCI-H226 = system: NCI-H226;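 note: cell viability read-out used to gauge growth inhibition of the cells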
# Description: SANGER: Inhibition of human NCI-H226 cell growth in a cell viability assay.
# RPMI-8226 = system: RPMI-8226
# Description: SANGER: Inhibition of human RPMI-8226 cell growth in a cell viability assay.
# ES1 = system: ES1;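 note: growth inhibition of ES1 cells, read out with a cell viability assay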
# Description: SANGER: Inhibition of human ES1 cell growth in a cell viability assay.
# HT = system: HT
# Description: SANGER: Inhibition of human HT cell growth in a cell viability assay.
# SNU-C2B = system: SNU-C2B;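 note: cell viability readout used to measure compound-driven suppression of SNU-C2B cell proliferation, IC50 marking half-maximal growth inhibition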
# Description: SANGER: Inhibition of human SNU-C2B cell growth in a cell viability assay.
# Mo = system: Mo
# Description: SANGER: Inhibition of human Mo-T cell growth in a cell viability assay.
# 697 = system: 697
# Description: SANGER: Inhibition of human 697 cell growth in a cell viability assay.
# BB30-HNC = system: BB30-HNC;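 note: growth inhibition of the cultured cell line, read out by a cell viability assay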
# Description: SANGER: Inhibition of human BB30-HNC cell growth in a cell viability assay.
# NCI-H1304 = system: NCI-H1304;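 note: growth inhibition of the cancer cell line, measured in a cell viability assay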
# Description: SANGER: Inhibition of human NCI-H1304 cell growth in a cell viability assay.
# DB = system: DB
# Description: SANGER: Inhibition of human DB cell growth in a cell viability assay.
# LU-139 = system: LU-139
# Description: SANGER: Inhibition of human LU-139 cell growth in a cell viability assay.
# LXF-289 cell line = system: LXF-289 cell line
# Description: SANGER: Inhibition of human LXF-289 cell growth in a cell viability assay.
# HC-1 = system: HC-1;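 note: growth inhibition of HC-1 cells measured by a cell viability assay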
# Description: SANGER: Inhibition of human HC-1 cell growth in a cell viability assay.
# UACC-257 = system: UACC-257
# Description: SANGER: Inhibition of human UACC-257 cell growth in a cell viability assay.
# TE-6 = system: TE-6;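 note: growth inhibition of TE-6 cells, read out with a cell viability assay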
# Description: SANGER: Inhibition of human TE-6 cell growth in a cell viability assay.
# LOX IMVI = system: LOX IMVI
# Description: SANGER: Inhibition of human LOXIMVI cell growth in a cell viability assay.
# LB771-HNC = system: LB771-HNC;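 note: growth inhibition of LB771-HNC human cells, read out with a cell viability assay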
# Description: SANGER: Inhibition of human LB771-HNC cell growth in a cell viability assay.
# NCI-H1838 = system: NCI-H1838;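 note: growth inhibition of NCI-H1838 cells, determined with a cell viability readout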
# Description: SANGER: Inhibition of human NCI-H1838 cell growth in a cell viability assay.
# TE-8 = system: TE-8;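 note: growth inhibition of TE-8 cells, measured with a cell viability readout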
# Description: SANGER: Inhibition of human TE-8 cell growth in a cell viability assay.
# NB5 = system: NB5;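 note: growth inhibition of NB5 cells, read out as cell viability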
# Description: SANGER: Inhibition of human NB5 cell growth in a cell viability assay.
# KMOE-2 = system: KMOE-2;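 note: growth inhibition of human KMOE-2 cells, read out with a cell viability assay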
# Description: SANGER: Inhibition of human KMOE-2 cell growth in a cell viability assay.
# OVCAR-4 = system: OVCAR-4;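 note: growth inhibition of human OVCAR-4 cells, measured with a cell viability assay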
# Description: SANGER: Inhibition of human OVCAR-4 cell growth in a cell viability assay.
# HT-144 = system: HT-144
# Description: SANGER: Inhibition of human HT-144 cell growth in a cell viability assay.
# LC-2-ad = system: LC-2-ad;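 note: growth inhibition of human LC-2-ad cells, read out with a cell viability assay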
# Description: SANGER: Inhibition of human LC-2-ad cell growth in a cell viability assay.
# SK-UT-1 = system: SK-UT-1;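 note: growth inhibition of SK-UT-1 cells, measured by a cell viability assay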
# Description: SANGER: Inhibition of human SK-UT-1 cell growth in a cell viability assay.
# GR-ST = system: GR-ST
# Description: SANGER: Inhibition of human GR-ST cell growth in a cell viability assay.
# NCI-H82 = system: NCI-H82;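 note: growth inhibition of NCI-H82 cells, measured with a cell viability readout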
# Description: SANGER: Inhibition of human NCI-H82 cell growth in a cell viability assay.
# TE-10 = system: TE-10;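 note: growth inhibition of TE-10 cells, measured by a cell viability assay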
# Description: SANGER: Inhibition of human TE-10 cell growth in a cell viability assay.
# MZ1-PC = system: MZ1-PC;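 note: cell viability assay measuring growth inhibition of human MZ1-PC cells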
# Description: SANGER: Inhibition of human MZ1-PC cell growth in a cell viability assay.
# RCC10RGB = system: RCC10RGB;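 note: growth inhibition of human RCC10RGB cells, read out by a cell viability assay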
# Description: SANGER: Inhibition of human RCC10RGB cell growth in a cell viability assay.
# KARPAS-299 = system: KARPAS-299
# Description: SANGER: Inhibition of human KARPAS-299 cell growth in a cell viability assay.
# OCI-AML2 = system: OCI-AML2;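 note: growth inhibition of OCI-AML2 cells, read out with a cell viability assay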
# Description: SANGER: Inhibition of human OCI-AML2 cell growth in a cell viability assay.
# NCI-H1092 = system: NCI-H1092;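 note: cell growth inhibition measured with a cell viability assay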
# Description: SANGER: Inhibition of human NCI-H1092 cell growth in a cell viability assay.
# TE-9 = system: TE-9;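 note: cell growth inhibition, measured with a cell viability readout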
# Description: SANGER: Inhibition of human TE-9 cell growth in a cell viability assay.
# LB2518-MEL = system: LB2518-MEL;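 note: growth inhibition of human LB2518-MEL cells, measured with a cell viability assay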
# Description: SANGER: Inhibition of human LB2518-MEL cell growth in a cell viability assay.
# 8-MG-BA = system: 8-MG-BA;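 note: growth inhibition of 8-MG-BA cells, read out with a cell viability assay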
# Description: SANGER: Inhibition of human 8-MG-BA cell growth in a cell viability assay.
# SNU-5 = system: SNU-5;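 note: cell viability readout used to measure growth inhibition in human NCI-SNU-5 cells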
# Description: SANGER: Inhibition of human NCI-SNU-5 cell growth in a cell viability assay.
# PSN1 = system: PSN1;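 note: suppression of growth of human PSN1 cells, read out by a cell viability assay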
# Description: SANGER: Inhibition of human PSN1 cell growth in a cell viability assay.
# BT-474 = system: BT-474
# Description: SANGER: Inhibition of human BT-474 cell growth in a cell viability assay.
# K562 = system: K562
# Description: SANGER: Inhibition of human K-562 cell growth in a cell viability assay.
# LB373-MEL-D = system: LB373-MEL-D;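 note: growth inhibition of the cell line, read out in a cell viability assay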
# Description: SANGER: Inhibition of human LB373-MEL-D cell growth in a cell viability assay.
# RKO = system: RKO;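 note: growth inhibition of human RKO cells, read out with a cell viability assay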
# Description: SANGER: Inhibition of human RKO cell growth in a cell viability assay.
# LAN-6 = system: LAN-6;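 note: growth inhibition of LAN-6 cells, determined with a cell viability assay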
# Description: SANGER: Inhibition of human LAN-6 cell growth in a cell viability assay.
# MMAC-SF = system: MMAC-SF;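 note: growth inhibition of human MMAC-SF cells, read out with a cell viability assay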
# Description: SANGER: Inhibition of human MMAC-SF cell growth in a cell viability assay.
# NH-12 = system: NH-12;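 note: growth inhibition of NH-12 cells, read out with a cell viability assay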
# Description: SANGER: Inhibition of human NH-12 cell growth in a cell viability assay.
# CCRF-CEM = system: CCRF-CEM;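 note: inhibition of CCRF-CEM cell growth, measured by a cell viability assay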
# Description: SANGER: Inhibition of human CCRF-CEM cell growth in a cell viability assay.
# LS-513 = system: LS-513
# Description: SANGER: Inhibition of human LS-513 cell growth in a cell viability assay.
# MFM-223 = system: MFM-223
# Description: SANGER: Inhibition of human MFM-223 cell growth in a cell viability assay.
# NB6 = system: NB6;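 note: growth inhibition of NB6 cells, read out by a cell viability assay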
# Description: SANGER: Inhibition of human NB6 cell growth in a cell viability assay.
# SK-PN-DW = system: SK-PN-DW;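 note: growth inhibition measured with a viability assay on these cells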
# Description: SANGER: Inhibition of human SK-PN-DW cell growth in a cell viability assay.
# IA-LM = system: IA-LM;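 note: cell viability assay measuring growth inhibition of human IA-LM cells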
# Description: SANGER: Inhibition of human IA-LM cell growth in a cell viability assay.
# MC116 = system: MC116;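 note: growth inhibition of MC116 cells, read out with a cell viability assay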
# Description: SANGER: Inhibition of human MC116 cell growth in a cell viability assay.
# NCI-H1650 = system: NCI-H1650;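 note: growth inhibition of human NCI-H1650 cells measured by a cell viability assay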
# Description: SANGER: Inhibition of human NCI-H1650 cell growth in a cell viability assay.
# CGTH-W-1 = system: CGTH-W-1;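 note: growth inhibition of human CGTH-W-1 cells measured by cell viability assay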
# Description: SANGER: Inhibition of human CGTH-W-1 cell growth in a cell viability assay.
# SF-268 = system: SF-268;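 note: growth inhibition of SF-268 cells determined with a cell viability assay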
# Description: SANGER: Inhibition of human SF268 cell growth in a cell viability assay.
# EW-1 = system: EW-1;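 note: growth inhibition of the human EW-1 cell line, read out by a cell viability assay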
# Description: SANGER: Inhibition of human EW-1 cell growth in a cell viability assay.
# DSH1 = system: DSH1;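 note: growth inhibition of human DSH1 cells, measured with a cell viability readout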
# Description: SANGER: Inhibition of human DSH1 cell growth in a cell viability assay.
# ES7 = system: ES7
# Description: SANGER: Inhibition of human ES7 cell growth in a cell viability assay.
smiles,measurement,setting,value
CC[C@]1(O)C[C@@H]2CN(CCc3c([nH]c4ccccc34)[C@@](C(=O)OC)(c3cc4c(cc3OC)N(C)[C@H]3[C@@](O)(C(=O)OC)[C@H](OC(C)=O)[C@]5(CC)C=CCN6CC[C@]43[C@@H]65)C2)C1 [VINBLASTINE],IC50,OCUB-M,0.00756 µM
same,IC50,Ramos-2G6-4C10,0.00155 µM
same,IC50,NMC-G1,0.00848 µM
same,IC50,NCI-H446,0.00212 µM
same,IC50,BE-13,0.00142 µM
same,IC50,MLMA,0.00465 µM
same,IC50,MZ7-mel,0.0111 µM
same,IC50,A101D,0.0314 µM
same,IC50,NCI-H226,0.0138 µM
same,IC50,RPMI-8226,0.00285 µM
same,IC50,ES1,0.00471 µM
same,IC50,HT,0.0156 µM
same,IC50,SNU-C2B,0.0247 µM
same,IC50,Mo,> 0.1 µM
same,IC50,697,0.00623 µM
same,IC50,BB30-HNC,0.00831 µM
same,IC50,NCI-H1304,> 0.1 µM
same,IC50,DB,0.00169 µM
same,IC50,LU-139,0.0141 µM
same,IC50,LXF-289 cell line,0.0103 µM
same,IC50,HC-1,0.00421 µM
same,IC50,UACC-257,0.0905 µM
same,IC50,TE-6,0.0565 µM
same,IC50,LOX IMVI,0.00698 µM
same,IC50,LB771-HNC,0.00857 µM
same,IC50,NCI-H1838,> 0.1 µM
same,IC50,TE-8,0.00616 µM
same,IC50,NB5,0.0157 µM
same,IC50,KMOE-2,0.0208 µM
same,IC50,OVCAR-4,0.0279 µM
same,IC50,HT-144,0.00332 µM
same,IC50,LC-2-ad,0.0079 µM
same,IC50,SK-UT-1,0.0117 µM
same,IC50,GR-ST,0.00763 µM
same,IC50,NCI-H82,> 0.1 µM
same,IC50,TE-10,0.0215 µM
same,IC50,MZ1-PC,0.0242 µM
same,IC50,RCC10RGB,> 0.1 µM
same,IC50,KARPAS-299,> 0.1 µM
same,IC50,OCI-AML2,> 0.1 µM
same,IC50,NCI-H1092,> 0.1 µM
same,IC50,TE-9,0.00427 µM
same,IC50,LB2518-MEL,> 0.1 µM
same,IC50,8-MG-BA,0.00634 µM
same,IC50,SNU-5,> 0.1 µM
same,IC50,PSN1,0.00125 µM
same,IC50,BT-474,0.0942 µM
same,IC50,K562,> 0.1 µM
same,IC50,LB373-MEL-D,0.0641 µM
same,IC50,RKO,0.00824 µM
same,IC50,LAN-6,0.0477 µM
same,IC50,MMAC-SF,0.0151 µM
same,IC50,NH-12,0.0263 µM
same,IC50,CCRF-CEM,0.0101 µM
same,IC50,LS-513,0.0563 µM
same,IC50,MFM-223,> 0.1 µM
same,IC50,NB6,0.08 µM
same,IC50,SK-PN-DW,0.00614 µM
same,IC50,IA-LM,0.0686 µM
same,IC50,MC116,0.00795 µM
same,IC50,NCI-H1650,> 0.1 µM
same,IC50,CGTH-W-1,0.00556 µM
same,IC50,SF-268,0.0162 µM
same,IC50,EW-1,0.00315 µM
same,IC50,DSH1,0.0232 µM
same,IC50,ES7,0.00575 µM
